What all share (assay type): cell-based
Assay [1] relates to mouse Th17 cell differentiation. The assay is described as follows: Th17 assay: mouse Th17 polarization (IL-17a producing cells, FACS). As to the method:
(§1) Percentage of DMSO treated IL-17a producing cells was set at 100. Naive mouse CD4 T cells (CD25^−, CD62L^+, and CD44^low-int) were sorted and cultured with CD3/CD28 stimulatory antibodies in the presence of TGFβ (0.1 ng/ml) and IL6 (20 ng/ml). Compounds were added on Day 1 and cells were analyzed on Day 4. For intracellular cytokine staining, cells were incubated for 5 h with phorbol ester (50 ng/ml; Sigma), ionomycin (500 ng/ml; Sigma) and GolgiStop (BD). When needed, surfaces were stained by incubation for 15 min on ice with PECy7-conjugated CD4 (BD Biosciences). The Cytofix/Cytoperm buffer set (BD) was used for intracellular staining. Cells were fixed and made permeable for 30 min on ice and were stained for 30 min on ice in permeabilization buffer with Alexa647-conjugated anti-IL17a (eBioscience) and PE-conjugated anti-IFNg (eBioscience). An LSR II (BD Biosciences) and FlowJo software (Tree Star) were used for flow cytometry. RORg IC50 value acquired from the S2 cell reporter assay is listed for comparison.
as §1, with “With respect to the methodological details pertaining to FIG. 1, naive” for “Percentage of DMSO treated IL-17a producing cells was set at 100. Naive mouse”, “(BD).” for “(BD). When needed, surfaces were stained by incubation for 15 min on ice with PECy7-conjugated CD4 (BD Biosciences).”, “anti-IFNγ” for “anti-IFNg”, “cytometry.” for “cytometry. RORg IC50 value acquired from the S2 cell reporter assay is listed for comparison.”

Assay [2] deals with human Th1 cell differentiation. The assay is described as follows: Human Th1 cell differentiation, IFNγ production (counter-screen, FIG. 2). Conditions: FIG. 2, FACS, 0.5 μM, naive CD4 T cells, IL12 and IL2; listed as NCGC00242624. The protocol: For Th1 differentiation, IL12 (10 ng/ml) and IL2 (100 U/ml) were added to naive CD4 T cell cultures instead of TGFβ and IL6.
Background: Counterscreens check selectivity or assay interference.

In the next assay the test system is RORγt. The assay is described as follows: RORγt overexpression dependent IL17a production in human CD4 T cells (FIG. 3). The note with it: FIG. 3, FACS, 0.5 μM; listed as NCGC00242624. As to the method: (§2) Briefly, CD3+ CD4+ CD45RA+ naive human T cells were isolated from peripheral blood derived from healthy donors. The naive T cells were cultured in XVIVO-20 (Lonza) medium for 7 days in the presence of IL2 and stimulatory CD3 and CD28 antibodies. Cells were infected with lentivirus encoding human RORα or RORγ and compound or DMSO was added on day 2. FACS plot analysis is shown after gating on GFP expressing (virus infected) cells.

A further assay relates to RORα. Put plainly: RORα overexpression dependent IL17a production in human CD4 T cells (FIG. 3). The note with it: FIG. 3, FACS, 0.5 μM; listed as NCGC00242624. As to the method:
as §2

We go through one compound from patent US9765063B2, “Amido compounds as RORγt modulators and uses thereof” (New York University, priority 2011, dated 2017).

By IC50 is commonly meant the concentration that inhibits the measured activity by half.

Each structure is given as a SMILES string. Entries after “also recorded” stand apart in the source; their conditions may differ.

As for `COc1cc(O)c(C(CC(=O)N2CC(C)CC(C)C2)c2ccc(C(=O)O)cc2)c(OC)c1` (centres unmarked) [Compound 99, 4-(3-(3,5-Dimethylpiperidin-1-yl)-1-(2-hydroxy-4,6-dimethoxyphenyl)-3-oxopropyl)benzoic acid], in assay [1] (FIG. 1, FACS, at the indicated concentrations, listed as NCGC00242624), the “mouse Th17 cell differentiation, as measured by IL17a production” value is “suppresses mouse Th17 cell differentiation with similar activity to NCGC00238427; also recorded: suppress mouse Th17 cell differentiation”. In addition, in assay [1] (naive mouse CD4 T cells, TGFβ and IL6, compounds added Day 1, analyzed Day 4, read-out: Th 17 IC50), the IC50 was 1 to 10 µM. In addition, the “Th1 cell differentiation, as measured by IFNγ production” value in assay [2] is on record as “does not inhibit Th1 cell differentiation”. Moreover, the “RORγt overexpression dependent IL17a production in human CD4 T cells” value in the assay with RORγt was “selectively inhibit RORγt dependent; also recorded: selectively inhibits RORγt overexpression dependent IL17a production”. In addition, the “RORα overexpression dependent IL17a production in human CD4 T cells” value in the assay with RORα is “unaffected”.
